Literature values, collected in PubChem BioAssay AID1259409 (Chemical Carcinogenesis Research Information System (CCRIS), 2018).

Tested on: rodent chemically induced tumor inhibition, incidence and multiplicity
Test: CCRIS tumor inhibitor studies
Settings: Dose [Inhibitor]: 0, Species: RAT

SMILES | tumour outcome (control, treated, inhibition, significance) (15 MG/KG BW EVERY OTHER DAY BEGINNING 1 WK AFTER CARCINOGEN DOSING THROUGH WK 52 WK (STUDY DURATION: 52 WK), Route [Inhibitor]: INTRAPERITONEAL, Strain/Sex: WISTAR/MALE, Target Tissue: Type of Lesion: STOMACH: ADENOCARCINOMA, Dose [Carcinogen]: 25 UG/ML IN DRINKING WATER FOR 25 WK, Promoter: SODIUM CHLORIDE (7647-14-5)) | tumour outcome (control, treated, inhibition, significance) (30 MG/KG BW EVERY OTHER DAY BEGINNING 1 WK AFTER CARCINOGEN DOSING THROUGH WK 52 WK (STUDY DURATION: 52 WK), Route [Inhibitor]: INTRAPERITONEAL, Strain/Sex: WISTAR/MALE, Target Tissue: Type of Lesion: STOMACH: ADENOCARCINOMA, Dose [Carcinogen]: 25 UG/ML IN DRINKING WATER FOR 25 WK, Promoter: SODIUM CHLORIDE (7647-14-5)) | tumour outcome (control, treated, inhibition, significance) (Carcinogen: AZOXYMETHANE, 25843-45-2, 0.02% IN DIET IN WK 1-3 OF STUDY FOLLOWED BY BASAL DIET FOR DURATION OF STUDY (STUDY DURATION: 1 YR), Route [Inhibitor]: ORAL, Strain/Sex: F344/MALE, Target Tissue: Type of Lesion: LARGE INTESTINE: ADENOCARCINOMA, Dose [Carcinogen]: 15 MG/KG BW 1/WK IN WK 1 AND 2 OF STUDY, Promoter: NONE USED) | tumour outcome (control, treated, inhibition, significance) (Carcinogen: AZOXYMETHANE, 25843-45-2, 0.02% IN DIET IN WK 1-3 OF STUDY FOLLOWED BY BASAL DIET FOR DURATION OF STUDY (STUDY DURATION: 1 YR), Route [Inhibitor]: ORAL, Strain/Sex: F344/MALE, Target Tissue: Type of Lesion: LARGE INTESTINE: ADENOMA, Dose [Carcinogen]: 15 MG/KG BW 1/WK IN WK 1 AND 2 OF STUDY, Promoter: NONE USED) | tumour outcome (control, treated, inhibition, significance) (Carcinogen: AZOXYMETHANE, 25843-45-2, 0.02% IN DIET IN WK 1-3 OF STUDY FOLLOWED BY BASAL DIET FOR DURATION OF STUDY (STUDY DURATION: 1 YR), Route [Inhibitor]: ORAL, Strain/Sex: F344/MALE, Target Tissue: Type of Lesion: SMALL INTESTINE: ADENOCARCINOMA, Dose [Carcinogen]: 15 MG/KG BW 1/WK IN WK 1 AND 2 OF STUDY, Promoter: NONE USED)
c1cnc2c(c1)ccc1cccnc12 | 19/20 (95%), 9/20 (45%), 53%, p< 0.001 | 19/20 (95%), 7/20 (35%), 63%, p< 0.01 | – | – | –
CC1(C)CC[C@]2(C(=O)O)CC[C@]3(C)C(=CC[C@@H]4[C@@]5(C)CC[C@H](O)C(C)(C)[C@@H]5CC[C@]43C)[C@@H]2C1 | – | – | 13/27 (48%), 6/29 (21%), 56%, not calculated | 6/27 (22%), 8/29 (28%), -27%, not significant | 6/27 (22%), 3/29 (10%), 55%, not calculated
